Measured values published in patent publication US20260042755A1, “GPR6 INVERSE AGONISTS” (MapLight Therapeutics, Inc., priority 2022, published 2026).

Legend:
GPR3 = target: T1, GPR3 (Homo sapiens, UniProt P46089); assay: GPR3 antagonist functional cAMP assay (LANCE Ultra cAMP TR-FRET, CHO cells stably expressing GPR3); type: cell-based
T1 construct: expressed in transfected cells; host or cells: CHO cells
Summary of the method: (§1)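 We measure cAMP by TR-FRET (665 nm) in cells held in glucose-containing Krebs-Ringer buffer with BSA and a PDE inhibitor, after a 45 min, 37 °C compound incubation. IC50s derive from a four-parameter logistic fit.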

GPR6 = target: T2, GPR6 (Homo sapiens, UniProt P46095); assay: GPR6 antagonist functional cAMP assay (LANCE Ultra cAMP TR-FRET, CHO cells stably expressing GPR6); type: cell-based
T2 construct: expressed in transfected cells; host or cells: CHO cells
T2 sequence (P46095 whole entry): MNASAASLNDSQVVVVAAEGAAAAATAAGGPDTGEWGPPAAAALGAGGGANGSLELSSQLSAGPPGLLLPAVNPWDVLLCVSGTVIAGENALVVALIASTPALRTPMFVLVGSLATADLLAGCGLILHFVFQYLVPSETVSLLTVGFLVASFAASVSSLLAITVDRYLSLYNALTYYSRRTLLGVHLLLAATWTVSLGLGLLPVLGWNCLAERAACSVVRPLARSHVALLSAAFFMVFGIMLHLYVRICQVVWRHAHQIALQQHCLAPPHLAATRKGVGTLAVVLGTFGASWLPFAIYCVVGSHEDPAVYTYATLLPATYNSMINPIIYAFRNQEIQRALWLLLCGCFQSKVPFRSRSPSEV
Summary of the method: as §1

[1] = CHO cells stably expressing GPR3, cAMP assay
[2] = CHO cells stably expressing GPR6, cAMP assay
[3] = CHO cells stably expressing GPR3, cAMP assay (Example 24)
[4] = CHO cells stably expressing GPR6, cAMP assay (Example 24)
[5] = procedure as described in Example 24

T1 sequence (P46089 whole entry, species assumed): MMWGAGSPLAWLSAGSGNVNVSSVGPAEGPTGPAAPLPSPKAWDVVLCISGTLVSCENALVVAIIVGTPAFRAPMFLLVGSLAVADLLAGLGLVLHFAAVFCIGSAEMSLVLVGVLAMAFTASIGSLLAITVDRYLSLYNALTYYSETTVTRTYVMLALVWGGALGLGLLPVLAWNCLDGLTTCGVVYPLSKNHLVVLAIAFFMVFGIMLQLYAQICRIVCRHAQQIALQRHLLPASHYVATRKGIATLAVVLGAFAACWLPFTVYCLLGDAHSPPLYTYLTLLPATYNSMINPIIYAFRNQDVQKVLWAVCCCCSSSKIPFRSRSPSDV

Compound	IC50 (GPR3; procedure of Example 24)	IC50 (GPR6; procedure of Example 24)	other results
CCn1cc(-c2nc3c(nc2N2CCC(Oc4ccc(F)cc4F)CC2)CCN(C(=O)C2CCCN2)C3)cn1 (stereo not drawn) [Compound 291, 4-(2,4-difluorophenoxy)-1-[3-(1-ethyl-1H-pyrazol-4-yl)-6-(pyrrolidine-2-carbonyl)-5H,6H,7H,8H-pyrido[3,4-b]pyrazin-2-yl]piperidine]	1000 to 30000 nM	< 100 nM	–
CCn1cc(-c2nc3cc(C(O)C(C)(C)O)ncc3nc2N2CCC(Oc3ccc(F)cc3F)CC2)cn1 (single isomer, unassigned) [Compound 589]	–	–	IC50 (GPR3; [1]): 100 to 1000 nM; IC50 (GPR6; [2]): < 100 nM
CC(=O)N1CCc2nc(N3CCN(Cc4cc(Cl)ccc4F)CC3)c(-c3cnn(C)c3)nc2C1 [Compound 349, 1-(2-{4-[(5-chloro-2-fluorophenyl)methyl]piperazin-1-yl}-3-(1-methyl-1H-pyrazol-4-yl)-5H,6H,7H,8H-pyrido[3,4-b]pyrazin-6-yl)ethan-1-one]	1000 to 30000 nM	< 100 nM	–
COc1ccc(C(=O)N2CCN(c3nc4c(nc3-c3cnn(C)c3)CN(C(C)=O)CC4)CC2)nc1 [Compound 284, 1-{2-[4-(5-methoxypyridine-2-carbonyl)piperazin-1-yl]-3-(1-methyl-1H-pyrazol-4-yl)-5H,6H,7H,8H-pyrido[3,4-b]pyrazin-6-yl}ethan-1-one]	1000 to 30000 nM	1000 to 30000 nM	–
CC(=O)N1CCc2nc(N3CCC(Oc4cccc(F)c4F)CC3)c(-c3cnn(C)c3)nc2C1 [Compound 423, 1-{2-[4-(2,3-difluorophenoxy)piperidin-1-yl]-3-(1-methyl-1H-pyrazol-4-yl)-5H,6H,7H,8H-pyrido[3,4-b]pyrazin-6-yl}ethan-1-one]	–	–	IC50 (GPR3; [3]): 1000 to 30000 nM; IC50 (GPR6; [4]): 1000 to 30000 nM
CC(=O)N1CCc2nc(N3CCN(Cc4cccn(C)c4=O)CC3)c(-c3cnn(C)c3)nc2C1 [Compound 534, 3-({4-[6-acetyl-3-(1-methyl-4-pyrazolyl)-5,6,7,8-tetrahydro-1,4,6-triaza-2-naphthyl]-1-piperazinyl}methyl)-1-methyl-2(1H)-pyridinone]	–	–	IC50 (GPR3; [1]): ≥ 30000 nM; IC50 (GPR6; [2]): ≥ 30000 nM
CNC(=O)N1CCc2nc(N3CCC(Oc4ccc(F)cc4F)CC3)c(-c3cn[nH]c3)nc2C1 [Compound 180, 2-[4-(2,4-difluorophenoxy)piperidin-1-yl]-N-methyl-3-(1H-pyrazol-4-yl)-5H,6H,7H,8H-pyrido[3,4-b]pyrazine-6-carboxamide]	–	–	IC50 (GPR3; [3]): 1000 to 30000 nM; IC50 (GPR6; [4]): 1000 to 30000 nM
CC(=O)N1CCc2nc(N3CCC(Oc4ccc(C#N)cc4F)CC3)c(-c3cnn(C)c3)nc2C1 [Compound 500, 4-{1-[6-acetyl-3-(1-methyl-4-pyrazolyl)-5,6,7,8-tetrahydro-1,4,6-triaza-2-naphthyl]-4-piperidyloxy}-3-fluorobenzonitrile]	–	–	IC50 (GPR3; [1]): 1000 to 30000 nM; IC50 (GPR6; [2]): 1000 to 30000 nM
COC1CCC(c2nc3c(nc2N2CCC(Oc4ccc(F)cc4F)CC2)CCN(C(C)=O)C3)C1 (stereo not drawn) [Compound 279, 1-{2-[4-(2,4-difluorophenoxy)piperidin-1-yl]-3-(3-methoxycyclopentyl)-5H,6H,7H,8H-pyrido[3,4-b]pyrazin-6-yl}ethan-1-one]	1000 to 30000 nM	1000 to 30000 nM	–
Cn1cc(-c2nc3cnc([C@H](O)C(C)(C)O)cc3nc2N2CCC(Oc3ccc(F)cc3F)CC2)cn1 (single isomer, unassigned) [Compound 378, (Rel-S)-1-(2-(4-(2,4-difluorophenoxy)piperidin-1-yl)-3-(1-methyl-1H-pyrazol-4-yl)pyrido[3,4-b]pyrazin-7-yl)-2-methylpropane-1,2-diol]	–	–	IC50 (GPR3; [3]): 1000 to 30000 nM; IC50 (GPR6; [4]): 100 to 1000 nM
CC(C)(O)C(O)c1cc2nc(-c3cnn(C(F)F)c3)c(N3CCC(Oc4ccc(F)cc4F)CC3)nc2cn1 (single isomer, unassigned) [Compound 584]	–	–	IC50 (GPR3; [1]): 1000 to 30000 nM; IC50 (GPR6; [2]): < 100 nM
COc1ccc(CN2CCN(c3nc4c(nc3-c3cnn(C)c3)CN(C(C)=O)CC4)CC2)cn1 [Compound 345, 1-(2-{4-[(6-methoxypyridin-3-yl)methyl]piperazin-1-yl}-3-(1-methyl-1H-pyrazol-4-yl)-5H,6H,7H,8H-pyrido[3,4-b]pyrazin-6-yl)ethan-1-one]	1000 to 30000 nM	1000 to 30000 nM	–
CC(=O)N1CCc2nc(N3CCC(Oc4ccc(F)cc4F)CC3)c(-c3cnn(CC(F)F)c3)nc2C1 [Compound 3, 1-{3-[1-(2,2-difluoroethyl)-1H-pyrazol-4-yl]-2-[4-(2,4-difluorophenoxy)piperidin-1-yl]-5H,6H,7H,8H-pyrido[3,4-b]pyrazin-6-yl}ethan-1-one]	–	–	IC50 (GPR3; [5]): 1000 to 30000 nM; IC50 (GPR6; [5]): 100 to 1000 nM
CC(C)(O)[C@@H](O)c1cc2nc(N3CCC(Oc4ccc(F)cc4F)CC3)c(-c3cnn(C4CC4)c3)nc2cn1 (single isomer, unassigned) [Compound 573]	–	–	IC50 (GPR3; [1]): 1000 to 30000 nM; IC50 (GPR6; [2]): 100 to 1000 nM
CC(=O)N1CCc2nc(N3CCC(Oc4ccc(F)cc4F)CC3)c(C3CCS(=O)(=O)CC3)nc2C1 [Compound 218, 4-{6-acetyl-2-[4-(2,4-difluorophenoxy)piperidin-1-yl]-5H,6H,7H,8H-pyrido[3,4-b]pyrazin-3-yl}-1λ^6-thiane-1,1-dione]	–	–	IC50 (GPR3; [3]): 1000 to 30000 nM; IC50 (GPR6; [4]): 1000 to 30000 nM
CC(=O)N1CCc2nc(N3CCC(Oc4cc(C#N)ccc4F)CC3)c(-c3cnn(C)c3)nc2C1 [Compound 424, 3-({1-[6-acetyl-3-(1-methyl-1H-pyrazol-4-yl)-5H,6H,7H,8H-pyrido[3,4-b]pyrazin-2-yl]piperidin-4-yl}oxy)-4-fluorobenzonitrile]	–	–	IC50 (GPR3; [3]): 1000 to 30000 nM; IC50 (GPR6; [4]): 1000 to 30000 nM
CC(=O)N1CCc2nc(N3CCC(Oc4ccc(F)cc4F)CC3)c(C3CCC(O)CC3)nc2C1 (stereo not drawn) [Compound 374, 1-(2-(4-(2,4-difluorophenoxy)piperidin-1-yl)-3-(4-hydroxycyclohexyl)-7,8-dihydropyrido[3,4-b]pyrazin-6(5H)-yl)ethan-1-one]	1000 to 30000 nM	1000 to 30000 nM	–
CC(=O)N1CCc2nc(N3CCN(C(=O)c4ccc(F)cc4Cl)CC3)c(-c3cnn(C)c3)nc2C1 [Compound 253, 1-{2-[4-(2-chloro-4-fluorobenzoyl)piperazin-1-yl]-3-(1-methyl-1H-pyrazol-4-yl)-5H,6H,7H,8H-pyrido[3,4-b]pyrazin-6-yl}ethan-1-one]	–	–	IC50 (GPR3; [3]): 1000 to 30000 nM; IC50 (GPR6; [4]): 1000 to 30000 nM
CC(=O)N1CCc2nc(N3CCN(Cc4ccccc4F)CC3)c(-c3cnn(C)c3)nc2C1 [Compound 252, 1-(2-{4-[(2-fluorophenyl)methyl]piperazin-1-yl}-3-(1-methyl-1H-pyrazol-4-yl)-5H,6H,7H,8H-pyrido[3,4-b]pyrazin-6-yl)ethan-1-one]	–	–	IC50 (GPR3; [3]): 1000 to 30000 nM; IC50 (GPR6; [4]): 100 to 1000 nM
COc1nc(-c2nc3c(nc2N2CCC(Oc4ccc(F)cc4F)CC2)CCN(C(C)=O)C3)cnc1Cl [Compound 308]	1000 to 30000 nM	< 100 nM	–

Continued, in another order:

IC50 (GPR3; procedure of Example 24)	IC50 (GPR6; procedure of Example 24)	Compound	other results
100 to 1000 nM	100 to 1000 nM	Cn1cc(-c2nc3cc([C@](C)(O)C(C)(C)O)ncc3nc2N2CCN(Cc3ccc(F)cc3F)CC2)cn1 (single isomer, unassigned) [Compound 773]	–
1000 to 30000 nM	100 to 1000 nM	CC(C)(O)C(C)(O)c1cc2nc(N3CCC(Oc4ccc(F)cc4F)CC3)c(-c3cnn(C(F)F)c3)nc2cn1 (stereo not drawn) [Compound 635, 2-{3-[1-(difluoromethyl)-4-pyrazolyl]-2-[4-(2,4-difluorophenoxy)-1-piperidyl]-1,4,6-triaza-7-naphthyl}-3-methyl-2,3-butanediol]	–
1000 to 30000 nM	100 to 1000 nM	CC(C)(O)[C@H](O)c1cc2nc(N3CCN(Cc4cc(F)ccc4F)CC3)c(-c3cnn(CF)c3)nc2cn1 (single isomer, unassigned) [Compound 726]	–
1000 to 30000 nM	100 to 1000 nM	CCn1cc(-c2nc3cnc([C@@](C)(O)C(C)(C)O)cc3nc2N2CCN(Cc3ccc(F)cc3F)CC2)cn1 (single isomer, unassigned) [Compound 690]	–
1000 to 30000 nM	< 100 nM	CC(C)(O)C(C)(O)c1cc2nc(-c3cnn(C(F)F)c3)c(N3CCC(Oc4ccc(F)cc4F)CC3)nc2cn1 (stereo not drawn) [Compound 674, 2-{2-[1-(difluoromethyl)-4-pyrazolyl]-3-[4-(2,4-difluorophenoxy)-1-piperidyl]-1,4,6-triaza-7-naphthyl}-3-methyl-2,3-butanediol]	–
1000 to 30000 nM	100 to 1000 nM	CC(C)(O)C(C)(O)c1cc2nc(N3CCC(Oc4ccc(F)cc4F)CC3)c(-c3cnn(CF)c3)nc2cn1 (stereo not drawn) [Compound 636, 2-{2-[4-(2,4-difluorophenoxy)-1-piperidyl]-3-[1-(fluoromethyl)-4-pyrazolyl]-1,4,6-triaza-7-naphthyl}-3-methyl-2,3-butanediol]	–
1000 to 30000 nM	100 to 1000 nM	CC(C)(O)Cc1cc2nc(-c3cnn(C4CC4)c3)c(N3CCC(Oc4ccc(F)cc4F)CC3)nc2cn1 [Compound 704, 1-{2-(1-cyclopropyl-4-pyrazolyl)-3-[4-(2,4-difluorophenoxy)-1-piperidyl]-1,4,6-triaza-7-naphthyl}-2-methyl-2-propanol]	–
1000 to 30000 nM	100 to 1000 nM	CC(C)(O)C(=O)c1cc2nc(N3CCN(Cc4ccccc4F)CC3)c(-c3cnn(C(F)F)c3)nc2cn1 [Compound 618, 1-{3-[1-(difluoromethyl)-4-pyrazolyl]-2-{4-[(o-fluorophenyl)methyl]-1-piperazinyl}-1,4,6-triaza-7-naphthyl}-2-hydroxy-2-methyl-1-propanone]	–
1000 to 30000 nM	100 to 1000 nM	CC(C)(O)[C@H](O)c1cc2nc(N3CCN(Cc4ccccc4F)CC3)c(-c3cnn(C4CC4)c3)nc2cn1 (single isomer, unassigned) [Compound 732]	–
1000 to 30000 nM	100 to 1000 nM	CC(C)(O)[C@@H](O)c1cc2nc(N3CCN(Cc4ccccc4F)CC3)c(-c3cnn(C4CC4)c3)nc2cn1 (single isomer, unassigned) [Compound 742]	–
